Legend:
Assay in all cases: Bliss excess, mean over the matrix (fraction); higher = more synergy
[1] = system: ATN-1 (T-Lymphoblastic Leukemia)
Procedure, shortened: (§1)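 After 24 hours at 37°C and 5% CO2 in 1536-well plates, cells in DMEM/F12 or RPMI plus 10% FBS received two-drug dose matrices for 72 hours. Viability came from CellTiter-Glo 2.0 luminescence and was scaled as inhibition, anchored at 0 by vehicle wells and at 1 by blank wells. Combination Emax is taken as the second-highest inhibition in the matrix, and Bliss excess as the observed combination effect less EA + EB − EA·EB, with EA and EB the single-agent effects.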

[2] = system: BC-1 (B-Cell Non-Hodgkin's Lymphoma)
Procedure, shortened: as §1

[3] = system: C2BBe1 (Colorectal Carcinoma)
Procedure, shortened: as §1

C32 (Melanoma) = system: C32 (Melanoma)
Procedure, shortened: as §1

[4] = system: GRANTA-519 (B-Cell Non-Hodgkin's Lymphoma)
Procedure, shortened: as §1

HT-144 (Melanoma) = system: HT-144 (Melanoma)
Procedure, shortened: as §1

[5] = system: HT-3 (Cervical Carcinoma)
Procedure, shortened: as §1

[6] = system: IGROV-1 (Ovarian Carcinoma)
Procedure, shortened: as §1

[7] = system: JJN-3 (Plasma Cell Myeloma)
Procedure, shortened: as §1

[8] = system: JURL-MK1 (Chronic Myelogenous Leukemia)
Procedure, shortened: as §1

[9] = system: L-363 (Plasma Cell Myeloma)
Procedure, shortened: as §1

[10] = system: NCI-H1648 (Lung Adenocarcinoma)
Procedure, shortened: as §1

[11] = system: NCI-H2009 (Lung Adenocarcinoma)
Procedure, shortened: as §1

[12] = system: NTERA-2-cl-D1 (Other Solid Carcinomas)
Procedure, shortened: as §1

[13] = system: OVKATE (Ovarian Carcinoma)
Procedure, shortened: as §1

[14] = system: RS4-11 (B-Lymphoblastic Leukemia)
Procedure, shortened: as §1

SK-N-DZ (Neuroblastoma) = system: SK-N-DZ (Neuroblastoma)
Procedure, shortened: as §1

[15] = system: SNU-1 (Gastric Carcinoma)
Procedure, shortened: as §1

[16] = system: SUP-HD1 (Hodgkin's Lymphoma)
Procedure, shortened: as §1

[17] = system: SW1463 (Colorectal Carcinoma)
Procedure, shortened: as §1

Row | Compound | Bliss excess [1] | Bliss excess [2] | Bliss excess [3] | Bliss excess (C32 (Melanoma)) | Bliss excess [4] | Bliss excess (HT-144 (Melanoma)) | Bliss excess [5] | Bliss excess [6] | Bliss excess [7] | Bliss excess [8] | Bliss excess [9] | Bliss excess [10] | Bliss excess [11] | Bliss excess [12] | Bliss excess [13] | Bliss excess [14] | Bliss excess (SK-N-DZ (Neuroblastoma)) | Bliss excess [15] | Bliss excess [16] | Bliss excess [17]
1 | Cc1c2c(nn1C)CSCc1cc(n(C)n1)CSc1cc(c3ccccc3c1)OCCCc1c(C(=O)O)n(C)c3c-2c(Cl)ccc13 [AZD5991] + C[C@@H](Nc1cc(F)cc(F)c1)c1cc(C(=O)N(C)C)cc2c(=O)cc(N3CCOCC3)oc12 [AZD8186] (first compound max 1 µM, 7x7, partner max 3 µM) | -0.0131 | -0.0042 | -0.026 | 0.0051 | -0.0444 | 0.0622 | 0.0217 | -0.0611 | -0.0448 | -0.0112 | -0.0476 | -0.0508 | -0.0076 | 0.0081 | -0.0298 | -0.0092 | -0.0328 | 0.002 | -0.0414 | -0.0398
2 | COc1cccc(OCCCN)c1-c1cc(Nc2cnc(C#N)cn2)n[nH]1 [Prexasertib] + C[C@@H]1COCCN1C2=NC(=NC(=C2)C3(CC3)[S@](=N)(=O)C)C4=C5C=CNC5=NC=C4 [AZD6738] (first compound max 1 µM, 7x7, partner max 10 µM) | -0.0207 | -0.0022 | 0.0009 | -0.0529 | -0.062 | -0.0217 | 0.0202 | -0.0567 | -0.0519 | 0.0056 | -0.0104 | -0.0445 | 0.0846 | 0.0172 | -0.0378 | -0.0225 | 0.008 | -0.0712 | -0.0809 | 0.0004
3 | CC1(C)CCC(CN2CCN(c3ccc(C(=O)NS(=O)(=O)c4ccc(NCC5CCOCC5)c([N+](=O)[O-])c4)c(Oc4cnc5[nH]ccc5c4)c3)CC2)=C(c2ccc(Cl)cc2)C1 [Venetoclax] + C[C@@H]1COCCN1C2=NC(=NC(=C2)C3(CC3)[S@](=N)(=O)C)C4=C5C=CNC5=NC=C4 [AZD6738] (first compound max 1 µM, 7x7, partner max 10 µM) | -0.0216 | 0.0087 | -0.0092 | -0.0229 | 0.0342 | 0.0378 | -0.0419 | -0.0075 | 0.067 | 0.0005 | 0.0331 | -0.0262 | -0.0357 | -0.0238 | -0.0291 | 0.0104 | -0.0396 | -0.0114 | -0.0605 | -0.06
4 | Cn1cnc2c(F)c(Nc3ccc(Br)cc3Cl)c(C(=O)NOCCO)cc21 [Selumetinib] + C=CCn1c(=O)c2cnc(Nc3ccc(N4CCN(C)CC4)cc3)nc2n1-c1cccc(C(C)(C)O)n1 [AZD1775] (first compound max 10 µM, partner max 1 µM) | -0.0253 | 0.0569 | -0.0398 | -0.0036 | 0.03 | -0.0127 | -0.0009 | -0.0444 | -0.0188 | 0.0067 | -0.0042 | -0.0704 | 0.0308 | 0.0314 | -0.0524 | -0.0443 | -0.022 | -0.005 | -0.0188 | -0.0367
5 | COc1cccc(OCCCN)c1-c1cc(Nc2cnc(C#N)cn2)n[nH]1 [Prexasertib] + CN(C)CCCOc1ccc(-c2ccc3ncc4c(c3c2)n(C2CCOCC2)c(=O)n4C)cn1 [AZD0156] (first compound max 1 µM, 7x7, partner max 1 µM) | 0.0102 | -0.0057 | 0.0131 | 0.009 | -0.035 | -0.0135 | 0.0366 | -0.0283 | 0.0057 | 0.0231 | -0.039 | -0.0136 | 0.019 | 0.0083 | -0.069 | -0.0548 | 0.0108 | -0.0201 | -0.0442 | -0.0265
6 | CCN(CCO)CCCOc1ccc2c(Nc3cc(CC(=O)Nc4cccc(F)c4)[nH]n3)ncnc2c1 [AZD2811] + O=C(c1cc(Cc2n[nH]c(=O)c3ccccc23)ccc1F)N1CCN(C(=O)C2CC2)CC1 [Olaparib] (first compound max 1 µM, 7x7, partner max 10 µM) | -0.0849 | -0.0401 | -0.0112 | -0.0056 | 0.0274 | -0.0266 | 0.008 | 0.0329 | 0.0422 | 0.073 | 0.0025 | -0.0179 | 0.0113 | 0.066 | -0.0481 | 0.0327 | -0.0696 | 0.0233 | 0.111 | 0.0014
7 | CC1(C)CCC(CN2CCN(c3ccc(C(=O)NS(=O)(=O)c4ccc(NCC5CCOCC5)c([N+](=O)[O-])c4)c(Oc4cnc5[nH]ccc5c4)c3)CC2)=C(c2ccc(Cl)cc2)C1 [Venetoclax] + C[C@@H](Nc1cc(F)cc(F)c1)c1cc(C(=O)N(C)C)cc2c(=O)cc(N3CCOCC3)oc12 [AZD8186] (first compound max 1 µM, 7x7, partner max 3 µM) | 0.0347 | -0.0157 | -0.135 | -0.0207 | 0.0281 | -0.0295 | -0.0359 | 0.0084 | -0.0092 | -0.0201 | -0.001 | -0.0603 | -0.0281 | -0.0199 | -0.0334 | -0.0083 | 0.0144 | -0.0157 | -0.025 | -0.0393
8 | Cn1cnc2c(F)c(Nc3ccc(Br)cc3Cl)c(C(=O)NOCCO)cc21 [Selumetinib] + C[C@@H]1COCCN1C2=NC(=NC(=C2)C3(CC3)[S@](=N)(=O)C)C4=C5C=CNC5=NC=C4 [AZD6738] (first compound max 10 µM, 7x7, partner max 10 µM) | -0.024 | -0.0612 | -0.052 | 0.0236 | 0.0067 | -0.0011 | 0.063 | 0.0211 | 0.0533 | 0.0095 | -0.0207 | -0.0259 | -0.0313 | -0.009 | -0.0282 | -0.0098 | -0.0083 | 0.0537 | -0.0549 | -0.0121
9 | CC1(C)CCC(CN2CCN(c3ccc(C(=O)NS(=O)(=O)c4ccc(NCC5CCOCC5)c([N+](=O)[O-])c4)c(Oc4cnc5[nH]ccc5c4)c3)CC2)=C(c2ccc(Cl)cc2)C1 [Venetoclax] + C=CCn1c(=O)c2cnc(Nc3ccc(N4CCN(C)CC4)cc3)nc2n1-c1cccc(C(C)(C)O)n1 [AZD1775] (first compound max 1 µM, partner max 1 µM) | 0.0707 | 0.0683 | 0.0124 | 0.0075 | 0.0734 | -0.0314 | -0.0049 | -0.0952 | -0.0187 | -0.0214 | 0.0933 | -0.0451 | -0.0212 | -0.0202 | -0.0169 | 0.0174 | 0.0353 | -0.0156 | -0.0256 | -0.0942
10 | CC(=O)c1c(C)c2cnc(Nc3ccc(N4CCNCC4)cn3)nc2n(C2CCCC2)c1=O [Palbociclib] + Cn1cnc2c(F)c(Nc3ccc(Br)cc3Cl)c(C(=O)NOCCO)cc21 [Selumetinib] (first compound max 10 µM, 7x7, partner max 10 µM) | 0.0209 | 0.0124 | -0.0273 | -0.0086 | -0.0386 | -0.0029 | -0.0279 | 0.0255 | -0.0244 | 0.0361 | 0.0127 | 0.0823 | -0.0264 | -0.007 | -0.0378 | -0.0881 | -0.0848 | 0.067 | -0.0414 | 0.0128
11 | CC1(C)CCC(CN2CCN(c3ccc(C(=O)NS(=O)(=O)c4ccc(NCC5CCOCC5)c([N+](=O)[O-])c4)c(Oc4cnc5[nH]ccc5c4)c3)CC2)=C(c2ccc(Cl)cc2)C1 [Venetoclax] + CCN(CCO)CCCOc1ccc2c(Nc3cc(CC(=O)Nc4cccc(F)c4)[nH]n3)ncnc2c1 [AZD2811] (first compound max 1 µM, 7x7, partner max 1 µM) | 0.0113 | 0.111 | -0.0368 | -0.0014 | 0.234 | -0.0132 | -0.0129 | -0.0091 | 0.169 | 0.0208 | 0.0141 | -0.0235 | -0.035 | 0.0826 | -0.0661 | 0.003 | 0.0269 | 0.0266 | -0.0195 | -0.0389
12 | COc1cccc(OCCCN)c1-c1cc(Nc2cnc(C#N)cn2)n[nH]1 [Prexasertib] + CCc1c2c(nc3ccc(O)cc13)-c1cc3c(c(=O)n1C2)COC(=O)[C@]3(O)CC [SN-38] (first compound max 1 µM, 7x7, partner max 0.3 µM) | 0.0005 | -0.0226 | -0.0103 | -0.126 | 0.0025 | -0.0236 | 0.0221 | -0.0131 | 0.0314 | -0.0109 | 0.0377 | 0.0114 | 0.132 | 0.0728 | -0.0292 | 0.0066 | 0.0205 | -0.0357 | -0.075 | 0.0515
13 | CN(C)CCCOc1ccc(-c2ccc3ncc4c(c3c2)n(C2CCOCC2)c(=O)n4C)cn1 [AZD0156] + C=CCn1c(=O)c2cnc(Nc3ccc(N4CCN(C)CC4)cc3)nc2n1-c1cccc(C(C)(C)O)n1 [AZD1775] (first compound max 1 µM, partner max 1 µM) | 0.0198 | -0.0006 | 0.0003 | -0.0348 | -0.0268 | -0.0268 | -0.023 | -0.0826 | -0.0271 | 0.0119 | 0.0057 | -0.0468 | -0.0695 | -0.0807 | -0.0601 | -0.0405 | -0.0179 | -0.003 | -0.0392 | -0.0323
14 | Cc1c2c(nn1C)CSCc1cc(n(C)n1)CSc1cc(c3ccccc3c1)OCCCc1c(C(=O)O)n(C)c3c-2c(Cl)ccc13 [AZD5991] + CC1(C)CCC(CN2CCN(c3ccc(C(=O)NS(=O)(=O)c4ccc(NCC5CCOCC5)c([N+](=O)[O-])c4)c(Oc4cnc5[nH]ccc5c4)c3)CC2)=C(c2ccc(Cl)cc2)C1 [Venetoclax] (first compound max 1 µM, 7x7, partner max 1 µM) | 0.0429 | 0.0493 | 0.0031 | 0.0147 | 0.0312 | 0.005 | 0.0195 | -0.0326 | 0.0514 | -0.0133 | 0.0519 | -0.0482 | -0.0158 | 0.0217 | -0.0527 | 0.0963 | 0.0428 | 0.136 | 0.0788 | -0.0589
